Measurements published in patent EP4745137A1 (Gluetacs Therapeutics (Shanghai) Co., Ltd., priority 2023, dated 2025).
pIC50: −log10 of the molar value.

Legend:
[1] = target: T1, WEE1 (Homo sapiens, UniProt P30291+Q96SW2); test: Western-blot assay of substrate protein degradation in hPBMCs, WEE1; format: cell-based; conditions: 24 hours of compound treatment, compounds tested at 50 nM and 500 nM (concentration of the table not stated)
T1 construct: endogenous in cells; host or cells: hPBMCs (Milecell Biotechnologies)

[2] = target: T2, IKZF1 (Homo sapiens, UniProt Q13422+Q96SW2); test: Western-blot assay of substrate protein degradation in hPBMCs, IKZF1; format: cell-based; conditions: 24 hours of compound treatment, compounds tested at 50 nM and 500 nM (concentration of the table not stated)
T2 construct: endogenous in cells; host or cells: hPBMCs (Milecell Biotechnologies)

[3] = target: T3, IKZF2 (Homo sapiens, UniProt Q96SW2+Q9UKS7); test: Western-blot assay of substrate protein degradation in hPBMCs, IKZF2; format: cell-based; conditions: 24 hours of compound treatment, compounds tested at 50 nM and 500 nM (concentration of the table not stated)
T3 construct: endogenous in cells; host or cells: hPBMCs (Milecell Biotechnologies)

[4] = target: T4, IKZF3 (Homo sapiens, UniProt Q96SW2+Q9UKT9); test: Western-blot assay of substrate protein degradation in hPBMCs, IKZF3; format: cell-based; conditions: 24 hours of compound treatment, compounds tested at 50 nM and 500 nM (concentration of the table not stated)
T4 construct: endogenous in cells; host or cells: hPBMCs (Milecell Biotechnologies)

[5] = target: T5, CK1α (Homo sapiens, UniProt P48729+Q96SW2); test: Western-blot assay of substrate protein degradation in hPBMCs, CK1α; format: cell-based; conditions: 24 hours of compound treatment, compounds tested at 50 nM and 500 nM (concentration of the table not stated)
T5 construct: endogenous in cells; host or cells: hPBMCs (Milecell Biotechnologies)

[6] = target: T6, GSPT1 (Homo sapiens, UniProt P15170+Q96SW2); test: Western-blot assay of substrate protein degradation in hPBMCs, GSPT1; format: cell-based; conditions: 24 hours of compound treatment, compounds tested at 50 nM and 500 nM (concentration of the table not stated)
T6 construct: endogenous in cells; host or cells: hPBMCs (Milecell Biotechnologies)

[7] = target: T7, human Cereblon WT GST-tagged protein (Homo sapiens, UniProt Q96SW2); test: CRBN-binding affinity by HTRF (CEREBLON BINDING kit); conditions: HTRF inhibitory activity, CEREBLON BINDING kit; read-out: HTRF IC50
T7 construct: purchased CISBIO 64BDCRBNPEH

[8] = system: TMD8; test: Tumor cell proliferation inhibition (CellTiter-Meiluncell Luminescent Cell Viability Assay), TMD8; conditions: Homo sapiens, TMD8, 96 h, read-out: inhibitory activity (IC50, nM) against tumor cells proliferation, TMD8
Description: (§1) The tumor cells used herein were cultured in a cell culture medium listed in table 2 at 37°C in an incubator with 5% CO2. Prior to experimentation, all cell lines used were correctly identified by STR profiling, and tested negative for mycoplasma contamination using a mycoplasma detection kit through routine screenings.
(§2) On the following day, the test compounds of the present disclosure were subjected to serial dilution. […] Subsequently, 0.5 µL of the test compound dilution was transferred into the 96-well plate containing the cells, with each well containing 100 µL of cell culture medium. […] Into the 96-well plate, the diluted test compounds and corresponding detection reagents were added, resulting in final test compound concentrations of 500 nM and 10 nM, respectively. The experimental procedure is described below using the diluted 2 µM test compound as an example.
(§3) After the cells were treated with the compounds of the present disclosure for a specified period (the treatment durations were shown in Table 3), the cell viability assay reagent was added to the culture medium according to the kit's instructions to determine cell viability. […] All controls were treated using the same procedure as the compounds of the present disclosure. The growth inhibition curves for the compounds of the present disclosure were plotted using Prism GraphPad software, and the IC50 values were calculated therefrom.

[9] = system: Human acute T lymphocytic leukemia cells (Molt-4); test: Tumor cell proliferation inhibition (CellTiter-Meiluncell Luminescent Cell Viability Assay), Molt-4; conditions: MOLT-4, 96 h, read-out: inhibitory activity (IC50, nM) against tumor cells proliferation, Molt 4
[10] = system: NCI-H1975; test: Tumor cell proliferation inhibition (CellTiter-Meiluncell Luminescent Cell Viability Assay), NCI-H1975; conditions: Homo sapiens, NCI-H1975, 96 h, read-out: inhibitory activity (IC50, nM) against tumor cells proliferation, H1975
[11] = system: Human breast cancer cells (MDA-MB-231); test: Tumor cell proliferation inhibition (CellTiter-Meiluncell Luminescent Cell Viability Assay), MDA-MB-231; conditions: MDA-MB-231, 96 h, read-out: inhibitory activity (IC50, nM) against tumor cells proliferation, MDA-MB-231
Description: as §1, §2, §3

T4 sequence (Q9UKT9 whole entry): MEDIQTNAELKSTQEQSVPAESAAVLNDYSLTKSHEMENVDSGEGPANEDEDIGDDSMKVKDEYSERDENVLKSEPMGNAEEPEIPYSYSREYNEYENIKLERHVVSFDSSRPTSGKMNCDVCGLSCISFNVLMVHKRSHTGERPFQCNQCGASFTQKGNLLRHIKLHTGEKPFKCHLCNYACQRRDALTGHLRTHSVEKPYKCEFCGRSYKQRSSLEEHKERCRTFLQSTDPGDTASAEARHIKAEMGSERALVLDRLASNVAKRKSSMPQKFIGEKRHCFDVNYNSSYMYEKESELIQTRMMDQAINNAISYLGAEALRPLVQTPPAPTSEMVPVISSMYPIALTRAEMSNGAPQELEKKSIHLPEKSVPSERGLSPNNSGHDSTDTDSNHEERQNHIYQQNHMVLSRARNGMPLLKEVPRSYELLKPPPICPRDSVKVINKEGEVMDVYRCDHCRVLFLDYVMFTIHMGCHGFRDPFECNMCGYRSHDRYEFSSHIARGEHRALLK
T4 sequence (Q96SW2 whole entry): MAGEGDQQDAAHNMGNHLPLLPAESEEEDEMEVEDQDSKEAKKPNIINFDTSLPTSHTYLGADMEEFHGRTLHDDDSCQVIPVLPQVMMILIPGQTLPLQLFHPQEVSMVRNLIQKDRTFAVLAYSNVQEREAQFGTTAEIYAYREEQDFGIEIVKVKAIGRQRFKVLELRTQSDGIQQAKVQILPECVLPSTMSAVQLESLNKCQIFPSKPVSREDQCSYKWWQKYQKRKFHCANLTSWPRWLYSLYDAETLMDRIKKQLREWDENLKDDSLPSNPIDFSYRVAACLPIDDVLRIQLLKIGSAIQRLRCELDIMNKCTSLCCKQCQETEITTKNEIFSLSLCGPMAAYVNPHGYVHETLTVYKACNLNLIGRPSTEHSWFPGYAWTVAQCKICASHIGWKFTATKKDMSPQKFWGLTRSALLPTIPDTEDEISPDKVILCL
T4 sequence (Q16531 whole entry partner): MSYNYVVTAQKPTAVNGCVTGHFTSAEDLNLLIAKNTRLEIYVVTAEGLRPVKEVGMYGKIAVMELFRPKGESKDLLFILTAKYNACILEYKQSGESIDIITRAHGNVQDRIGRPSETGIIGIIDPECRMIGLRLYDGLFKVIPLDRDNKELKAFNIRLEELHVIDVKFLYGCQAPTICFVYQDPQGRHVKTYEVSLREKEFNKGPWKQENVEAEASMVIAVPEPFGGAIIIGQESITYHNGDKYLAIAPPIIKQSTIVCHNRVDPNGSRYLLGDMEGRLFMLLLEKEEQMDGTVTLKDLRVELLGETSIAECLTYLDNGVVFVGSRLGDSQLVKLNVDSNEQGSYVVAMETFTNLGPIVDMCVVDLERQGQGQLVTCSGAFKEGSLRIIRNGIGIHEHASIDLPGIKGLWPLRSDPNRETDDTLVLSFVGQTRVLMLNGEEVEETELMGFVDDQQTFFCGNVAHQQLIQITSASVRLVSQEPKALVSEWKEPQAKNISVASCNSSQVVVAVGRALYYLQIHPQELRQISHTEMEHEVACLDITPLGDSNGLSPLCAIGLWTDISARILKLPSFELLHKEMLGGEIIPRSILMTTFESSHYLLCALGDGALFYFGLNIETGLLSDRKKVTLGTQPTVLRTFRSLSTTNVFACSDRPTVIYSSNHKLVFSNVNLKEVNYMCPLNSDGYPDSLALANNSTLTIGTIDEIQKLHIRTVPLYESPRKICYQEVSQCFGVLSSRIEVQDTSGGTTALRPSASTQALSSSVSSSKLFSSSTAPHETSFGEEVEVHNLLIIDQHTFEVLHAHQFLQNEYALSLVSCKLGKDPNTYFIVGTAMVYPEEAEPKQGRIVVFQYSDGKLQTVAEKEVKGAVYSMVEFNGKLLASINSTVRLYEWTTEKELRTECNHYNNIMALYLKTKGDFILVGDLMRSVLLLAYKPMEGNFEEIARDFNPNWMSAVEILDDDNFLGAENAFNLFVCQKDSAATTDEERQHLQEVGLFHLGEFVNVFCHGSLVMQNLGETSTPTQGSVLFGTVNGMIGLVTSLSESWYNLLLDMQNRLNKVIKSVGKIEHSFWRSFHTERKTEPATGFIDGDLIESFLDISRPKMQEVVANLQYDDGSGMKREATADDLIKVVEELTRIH
T7 sequence (Q96SW2 whole entry): as the sequence (Q96SW2 whole entry) above
T6 sequence (P15170 whole entry): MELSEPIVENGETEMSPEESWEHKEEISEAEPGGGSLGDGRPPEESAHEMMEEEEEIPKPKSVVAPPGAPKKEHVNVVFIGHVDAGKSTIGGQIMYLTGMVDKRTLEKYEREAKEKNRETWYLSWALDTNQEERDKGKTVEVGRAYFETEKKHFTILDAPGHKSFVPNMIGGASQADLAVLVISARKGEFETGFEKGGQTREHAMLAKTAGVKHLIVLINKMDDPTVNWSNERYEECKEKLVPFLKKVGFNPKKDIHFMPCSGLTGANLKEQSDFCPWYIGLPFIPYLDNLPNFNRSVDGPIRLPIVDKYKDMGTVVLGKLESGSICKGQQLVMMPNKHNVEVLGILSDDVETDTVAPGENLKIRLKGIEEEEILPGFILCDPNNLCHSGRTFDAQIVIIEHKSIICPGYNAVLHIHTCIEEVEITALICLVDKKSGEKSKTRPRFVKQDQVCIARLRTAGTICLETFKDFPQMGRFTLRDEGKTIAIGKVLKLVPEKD
T6 sequence (Q96SW2 whole entry): as the sequence (Q96SW2 whole entry) above
T6 sequence (Q16531 whole entry partner): as the sequence (Q16531 whole entry partner) above
T5 sequence (P48729 whole entry): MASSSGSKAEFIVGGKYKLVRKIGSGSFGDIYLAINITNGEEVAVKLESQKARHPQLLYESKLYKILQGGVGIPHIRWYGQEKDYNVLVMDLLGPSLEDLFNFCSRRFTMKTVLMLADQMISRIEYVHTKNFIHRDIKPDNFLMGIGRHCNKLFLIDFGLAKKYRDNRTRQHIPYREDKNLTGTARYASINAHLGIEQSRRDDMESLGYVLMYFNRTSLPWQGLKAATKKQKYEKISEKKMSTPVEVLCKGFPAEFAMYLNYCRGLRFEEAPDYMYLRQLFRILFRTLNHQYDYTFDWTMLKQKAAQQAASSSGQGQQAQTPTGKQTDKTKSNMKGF
T5 sequence (Q96SW2 whole entry): as the sequence (Q96SW2 whole entry) above
T5 sequence (Q16531 whole entry partner): as the sequence (Q16531 whole entry partner) above
T2 sequence (Q13422 whole entry): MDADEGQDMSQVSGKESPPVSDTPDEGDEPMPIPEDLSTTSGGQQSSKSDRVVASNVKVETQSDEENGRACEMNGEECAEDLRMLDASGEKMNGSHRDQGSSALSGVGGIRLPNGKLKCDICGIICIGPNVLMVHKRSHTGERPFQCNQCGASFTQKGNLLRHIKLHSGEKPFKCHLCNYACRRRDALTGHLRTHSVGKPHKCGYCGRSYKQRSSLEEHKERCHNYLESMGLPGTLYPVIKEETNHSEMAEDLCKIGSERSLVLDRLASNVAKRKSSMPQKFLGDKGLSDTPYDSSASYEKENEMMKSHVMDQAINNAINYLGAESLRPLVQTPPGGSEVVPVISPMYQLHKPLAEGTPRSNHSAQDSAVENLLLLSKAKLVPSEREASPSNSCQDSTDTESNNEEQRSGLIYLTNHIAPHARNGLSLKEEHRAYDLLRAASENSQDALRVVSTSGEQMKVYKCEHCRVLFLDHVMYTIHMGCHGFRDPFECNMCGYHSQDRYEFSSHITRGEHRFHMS
T2 sequence (Q96SW2 whole entry): as the sequence (Q96SW2 whole entry) above
T2 sequence (Q16531 whole entry partner): as the sequence (Q16531 whole entry partner) above
T3 sequence (Q9UKS7 whole entry): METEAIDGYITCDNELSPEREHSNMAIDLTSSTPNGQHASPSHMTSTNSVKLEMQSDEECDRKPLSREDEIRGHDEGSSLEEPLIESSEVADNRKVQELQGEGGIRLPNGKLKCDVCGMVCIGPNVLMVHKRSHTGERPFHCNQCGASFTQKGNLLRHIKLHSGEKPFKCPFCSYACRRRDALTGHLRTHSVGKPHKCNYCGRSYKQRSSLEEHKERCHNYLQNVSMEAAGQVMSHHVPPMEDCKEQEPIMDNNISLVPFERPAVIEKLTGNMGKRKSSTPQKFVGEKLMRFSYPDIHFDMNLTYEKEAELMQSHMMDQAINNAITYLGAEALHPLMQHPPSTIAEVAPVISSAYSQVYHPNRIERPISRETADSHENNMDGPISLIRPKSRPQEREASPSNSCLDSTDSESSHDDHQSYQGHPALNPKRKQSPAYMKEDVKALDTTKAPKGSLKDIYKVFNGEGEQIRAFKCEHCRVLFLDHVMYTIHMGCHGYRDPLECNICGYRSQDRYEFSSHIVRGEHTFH
T3 sequence (Q96SW2 whole entry): as the sequence (Q96SW2 whole entry) above
T3 sequence (Q16531 whole entry partner): as the sequence (Q16531 whole entry partner) above

| SMILES | Weel substrate protein remaining % [1] | IKZF 1 substrate protein remaining % [2] | IKZF2 substrate protein remaining % [3] | IKZF3 substrate protein remaining % [4] | CK1a substrate protein remaining % [5] | GSPT1 substrate protein remaining % [6] | pIC50 [7] | IC50 [8] [nM] | IC50 [9] [nM] | IC50 [10] [nM] | IC50 [11] [nM] |
| --- | --- | --- | --- | --- | --- | --- | --- | --- | --- | --- | --- |
| Cc1cc(C2=CCN(Cc3ccc4c(c3)CN(C3CCC(=O)NC3=O)C4=O)CC2)cs1 (centres unmarked) [GT-04587, 3-(5-((4-(5-methylthiophen-3-yl)-3,6-dihydropyridin-1(2H)-yl)methyl)-1-oxoisoindolin-2-yl)piperidine-2,6-dione] | A (0% ≤ substrate protein remaining % ≤ 80%) | A (0% ≤ substrate protein remaining % ≤ 80%) | A (0% ≤ substrate protein remaining % ≤ 80%) | A (0% ≤ substrate protein remaining % ≤ 80%) | B (80%< substrate protein remaining %≤ 100%) | A (0% ≤ substrate protein remaining % ≤ 80%) | 6.00 to 6.30 | 10 to 50 | 1 to 5 | 5 to 10 | 1 to 5 |
| Cc1cc(C2CCN(Cc3ccc4c(c3)CN(C3CCC(=O)NC3=O)C4=O)CC2)cs1 (centres unmarked) [GT-04588, 3-(5-((4-(5-methylthiophen-3-yl)piperidin-1-yl)methyl)-1-oxoisoindolin-2-yl)piperidine-2,6-dione] | B (80%< substrate protein remaining %≤ 100%) | B (80%< substrate protein remaining %≤ 100%) | A (0% ≤ substrate protein remaining % ≤ 80%) | B (80%< substrate protein remaining %≤ 100%) | B (80%< substrate protein remaining %≤ 100%) | A (0% ≤ substrate protein remaining % ≤ 80%) | 5.82 to 6.00 | 100 to 500 | 5 to 10 | 50 to 100 | 10 to 50 |
| O=C1CCC(N2Cc3cc(CN4CC=C(c5ccoc5)CC4)ccc3C2=O)C(=O)N1 (centres unmarked) [GT-04589, 3-(5-((4-(furan-3-yl)-3,6-dihydropyridin-1(2H)-yl)methyl)-1-oxoisoindolin-2-yl)piperidine-2,6-dione] | B (80%< substrate protein remaining %≤ 100%) | B (80%< substrate protein remaining %≤ 100%) | A (0% ≤ substrate protein remaining % ≤ 80%) | B (80%< substrate protein remaining %≤ 100%) | B (80%< substrate protein remaining %≤ 100%) | A (0% ≤ substrate protein remaining % ≤ 80%) | > 6.30 | 500 to 1000 | 10 to 50 | 100 to 500 | 100 to 500 |
| O=C1CCC(N2Cc3cc(CN4CC=C(c5c[nH]c6ncccc56)CC4)ccc3C2=O)C(=O)N1 (centres unmarked) [GT-04602, 3-(5-((4-(1H-pyrrolo[2,3-b]pyridin-3-yl)-3,6-dihydropyridin-1(2H)-yl)methyl)-1-oxoisoindolin-2-yl)piperidine-2,6-dione] | A (0% ≤ substrate protein remaining % ≤ 80%) | A (0% ≤ substrate protein remaining % ≤ 80%) | A (0% ≤ substrate protein remaining % ≤ 80%) | A (0% ≤ substrate protein remaining % ≤ 80%) | A (0% ≤ substrate protein remaining % ≤ 80%) | A (0% ≤ substrate protein remaining % ≤ 80%) | > 6.30 | 10 to 50 | 1 to 5 | 10 to 50 | 10 to 50 |
| O=C1CCC(N2Cc3cc(CN4CCN(c5cc(Cl)cc(Cl)c5)CC4)ccc3C2=O)C(=O)N1 (centres unmarked) [GT-04614, 3-(5-((4-(3,5-dichlorophenyl)piperazin-1-yl)methyl)-1-oxoisoindolin-2-yl)piperidine-2,6-dione] | A (0% ≤ substrate protein remaining % ≤ 80%) | B (80%< substrate protein remaining %≤ 100%) | B (80%< substrate protein remaining %≤ 100%) | B (80%< substrate protein remaining %≤ 100%) | B (80%< substrate protein remaining %≤ 100%) | A (0% ≤ substrate protein remaining % ≤ 80%) | 6.00 to 6.30 | 10 to 50 | 1 to 5 | 10 to 50 | 10 to 50 |
| O=C1CCC(N2Cc3cc(CN4CCN(c5nccc(Cl)c5Br)CC4)ccc3C2=O)C(=O)N1 (centres unmarked) [GT-04615, 3-(5-((4-(3-bromo-4-chloropyridin-2-yl)piperazin-1-yl)methyl)-1-oxoisoindolin-2-yl)piperidine-2,6-dione] | A (0% ≤ substrate protein remaining % ≤ 80%) | A (0% ≤ substrate protein remaining % ≤ 80%) | A (0% ≤ substrate protein remaining % ≤ 80%) | A (0% ≤ substrate protein remaining % ≤ 80%) | A (0% ≤ substrate protein remaining % ≤ 80%) | A (0% ≤ substrate protein remaining % ≤ 80%) | 6.00 to 6.30 | 500 to 1000 | 10 to 50 | 100 to 500 | 100 to 500 |
| O=C1CCC(N2Cc3cc(CN4CC=C(c5ccco5)CC4)ccc3C2=O)C(=O)N1 (centres unmarked) [GT-04617, 3-(5-((4-(furan-2-yl)-3,6-dihydropyridin-1(2H)-yl)methyl)-1-oxoisoindolin-2-yl)piperidine-2,6-dione] | A (0% ≤ substrate protein remaining % ≤ 80%) | A (0% ≤ substrate protein remaining % ≤ 80%) | A (0% ≤ substrate protein remaining % ≤ 80%) | A (0% ≤ substrate protein remaining % ≤ 80%) | B (80%< substrate protein remaining %≤ 100%) | A (0% ≤ substrate protein remaining % ≤ 80%) | > 6.30 | 100 to 500 | 5 to 10 | 100 to 500 | 10 to 50 |
| O=C1CCC(N2Cc3cc(CN4CC=C(c5cncc(Cl)c5)CC4)ccc3C2=O)C(=O)N1 (centres unmarked) [GT-04620, 3-(5-((5-chloro-3',6'-dihydro-[3,4'-bipyridin]-1'(2'H)-yl)methyl)-1-oxoisoindolin-2-yl)piperidine-2,6-dione] | A (0% ≤ substrate protein remaining % ≤ 80%) | A (0% ≤ substrate protein remaining % ≤ 80%) | A (0% ≤ substrate protein remaining % ≤ 80%) | A (0% ≤ substrate protein remaining % ≤ 80%) | B (80%< substrate protein remaining %≤ 100%) | A (0% ≤ substrate protein remaining % ≤ 80%) | 6.00 to 6.30 | 10 to 50 | 1 to 5 | 10 to 50 | 10 to 50 |
| O=C1CCC(N2Cc3cc(CN4CCC(N5CCc6cc(F)ccc65)CC4)ccc3C2=O)C(=O)N1 (centres unmarked) [GT-04650, 3-(5-((4-(5-fluoroindolin-1-yl)piperidin-1-yl)methyl)-1-oxoisoindolin-2-yl)piperidine-2,6-dione] | A (0% ≤ substrate protein remaining % ≤ 80%) | A (0% ≤ substrate protein remaining % ≤ 80%) | A (0% ≤ substrate protein remaining % ≤ 80%) | A (0% ≤ substrate protein remaining % ≤ 80%) | B (80%< substrate protein remaining %≤ 100%) | A (0% ≤ substrate protein remaining % ≤ 80%) | > 6.30 | 100 to 500 | 10 to 50 | 50 to 100 | 50 to 100 |
| O=C1CCC(N2Cc3cc(CN4CC=C(c5cccc6cnccc56)CC4)ccc3C2=O)C(=O)N1 (centres unmarked) [GT-04666, 3-(5-((4-(isoquinolin-5-yl)-3,6-dihydropyridin-1(2H)-yl)methyl)-1-oxoisoindolin-2-yl)piperidine-2,6-dione] | A (0% ≤ substrate protein remaining % ≤ 80%) | A (0% ≤ substrate protein remaining % ≤ 80%) | A (0% ≤ substrate protein remaining % ≤ 80%) | A (0% ≤ substrate protein remaining % ≤ 80%) | A (0% ≤ substrate protein remaining % ≤ 80%) | A (0% ≤ substrate protein remaining % ≤ 80%) | > 6.30 | 10 to 50 | 1 to 5 | 10 to 50 | 5 to 10 |
